Test results from the CheMixHub ionic liquid set.

Experiment: xn = mol fraction of the nth substance listed

CCCCCCCCCCCCCC[n+]1ccccc1.O=C([O-])C(O)c1ccccc1 + NCC(=O)NCC(=O)O + O
electrical conductivity [S/m], 101 kPa
Settings | 293.15 K | 298.15 K | 303.15 K | 308.15 K | 313.15 K
x1 = 5.26e-06, x2 = 0.0009002 | 0.00276 | 0.00323 | 0.00375 | 0.00433 | 0.005
x1 = 6.01e-06, x2 = 0.001799 | 0.00408 | 0.00487 | 0.00569 | 0.0066 | 0.0077
x1 = 6.85e-06, x2 = 0 | 0.00248 | 0.00278 | 0.00309 | 0.0034 | 0.0037
x1 = 9.97e-06, x2 = 0.0009002 | 0.00403 | 0.00465 | 0.00533 | 0.0061 | 0.0069
x1 = 1.185e-05, x2 = 0.001799 | 0.00561 | 0.00655 | 0.0076 | 0.0088 | 0.01
x1 = 1.424e-05, x2 = 0 | 0.00472 | 0.00529 | 0.00587 | 0.0065 | 0.0071
x1 = 1.486e-05, x2 = 0.0009002 | 0.0054 | 0.00621 | 0.0071 | 0.008 | 0.009
x1 = 1.713e-05, x2 = 0.001799 | 0.00703 | 0.0082 | 0.0094 | 0.0107 | 0.0122
x1 = 2.084e-05, x2 = 0.0009002 | 0.00697 | 0.008 | 0.0091 | 0.0102 | 0.0114
x1 = 2.126e-05, x2 = 0 | 0.00671 | 0.0076 | 0.0084 | 0.0093 | 0.0101
x1 = 2.26e-05, x2 = 0.001799 | 0.0085 | 0.0098 | 0.0112 | 0.0128 | 0.0144
x1 = 2.537e-05, x2 = 0.0009002 | 0.0082 | 0.0094 | 0.0106 | 0.012 | 0.0134
x1 = 2.788e-05, x2 = 0.001799 | 0.0098 | 0.0113 | 0.0129 | 0.0146 | 0.0165
x1 = 2.811e-05, x2 = 0 | 0.0086 | 0.0097 | 0.0108 | 0.0122 | 0.0131
x1 = 3.117e-05, x2 = 0.0009002 | 0.0097 | 0.0111 | 0.0125 | 0.014 | 0.0157
x1 = 3.335e-05, x2 = 0.001799 | 0.0111 | 0.0127 | 0.0145 | 0.0164 | 0.0184
x1 = 3.46e-05, x2 = 0 | 0.0103 | 0.0116 | 0.0129 | 0.0145 | 0.0157
x1 = 3.679e-05, x2 = 0.0009002 | 0.011 | 0.0125 | 0.0141 | 0.0159 | 0.0178
x1 = 3.864e-05, x2 = 0.001799 | 0.0122 | 0.014 | 0.0159 | 0.018 | 0.0203
x1 = 4.108e-05, x2 = 0 | 0.0117 | 0.0131 | 0.0146 | 0.0161 | 0.0179
x1 = 4.386e-05, x2 = 0.0009001 | 0.0123 | 0.014 | 0.0157 | 0.0177 | 0.0199
x1 = 4.574e-05, x2 = 0.001799 | 0.0134 | 0.0153 | 0.0174 | 0.0197 | 0.0222
x1 = 4.811e-05, x2 = 0 | 0.0129 | 0.0144 | 0.0161 | 0.0179 | 0.0198
x1 = 5.11e-05, x2 = 0.0009001 | 0.0133 | 0.0151 | 0.017 | 0.0192 | 0.0215
x1 = 5.321e-05, x2 = 0.001799 | 0.0145 | 0.0165 | 0.0187 | 0.0213 | 0.024
x1 = 5.388e-05, x2 = 0 | 0.0137 | 0.0154 | 0.0172 | 0.0191 | 0.0211
x1 = 5.781e-05, x2 = 0.0009001 | 0.0143 | 0.0162 | 0.0182 | 0.0205 | 0.023
x1 = 5.982e-05, x2 = 0 | 0.0145 | 0.0163 | 0.0182 | 0.0202 | 0.0224
x1 = 6.069e-05, x2 = 0.001799 | 0.0155 | 0.0177 | 0.02 | 0.0227 | 0.0254
x1 = 6.433e-05, x2 = 0.0009001 | 0.0152 | 0.0172 | 0.0193 | 0.0218 | 0.0244
x1 = 6.559e-05, x2 = 0 | 0.0153 | 0.0172 | 0.0192 | 0.0213 | 0.0236
x1 = 6.816e-05, x2 = 0.001799 | 0.0165 | 0.0187 | 0.0213 | 0.024 | 0.027
x1 = 7.081e-05, x2 = 0 | 0.016 | 0.018 | 0.02 | 0.0223 | 0.0246
x1 = 7.104e-05, x2 = 0.0009001 | 0.0161 | 0.0182 | 0.0204 | 0.023 | 0.0258
x1 = 7.454e-05, x2 = 0.001799 | 0.0173 | 0.0197 | 0.0222 | 0.0252 | 0.0283
x1 = 7.604e-05, x2 = 0 | 0.0167 | 0.0187 | 0.0209 | 0.0232 | 0.0258
x1 = 7.81e-05, x2 = 0.0009001 | 0.0171 | 0.0193 | 0.0217 | 0.0244 | 0.0273
x1 = 8.072e-05, x2 = 0 | 0.0173 | 0.0194 | 0.0217 | 0.0241 | 0.0266
x1 = 8.128e-05, x2 = 0.001799 | 0.0182 | 0.0207 | 0.0233 | 0.0265 | 0.0298

CC(=O)[O-].CC[NH2+]CC + O
Settings | electrical conductivity [S/m] | viscosity [mPa·s]
283.15 K, 100.9 kPa, x1 = 0.168 | – | 27.4
283.15 K, 100.9 kPa, x1 = 0.24 | – | 55.1
283.15 K, 100.9 kPa, x1 = 0.351 | – | 92.3
288.15 K, 100.9 kPa, x1 = 0.549 | – | 105
295.65 K, 100.9 kPa, x1 = 0.168 | – | 14.67
298.15 K, 101 kPa, x1 = 0.0174 | 2.06 | –
298.15 K, 101 kPa, x1 = 0.0967 | 2.21 | –
298.15 K, 101 kPa, x1 = 0.199 | – | 14.82
298.15 K, 101 kPa, x1 = 0.1997 | 1.52 | –
298.15 K, 101 kPa, x1 = 0.6989 | 0.361 | –
298.15 K, 101 kPa, x1 = 0.877 | – | 57.2
300.65 K, 100.9 kPa, x1 = 0.168 | – | 11.78
303.15 K, 100.9 kPa, x1 = 0.168 | 2.24 | 10.62
303.15 K, 100.9 kPa, x1 = 0.351 | – | 30.6
305.65 K, 100.9 kPa, x1 = 0.24 | – | 17.47
310.65 K, 100.9 kPa, x1 = 0.24 | – | 14.12
310.65 K, 100.9 kPa, x1 = 0.549 | – | 32.6
313.15 K, 100.9 kPa, x1 = 0.549 | – | 29.2
315.65 K, 100.9 kPa, x1 = 0.119 | – | 4.25
315.65 K, 100.9 kPa, x1 = 0.168 | – | 6.65
315.65 K, 100.9 kPa, x1 = 0.714 | – | 30.1
318.15 K, 100.9 kPa, x1 = 0.007 | 2.25 | –
318.15 K, 100.9 kPa, x1 = 0.353 | 1.34 | –
328.15 K, 100.9 kPa, x1 = 0.015 | – | 0.728
328.15 K, 100.9 kPa, x1 = 0.549 | – | 16.18
330.65 K, 100.9 kPa, x1 = 0.015 | – | 0.692
330.65 K, 100.9 kPa, x1 = 0.055 | – | 1.339
330.65 K, 100.9 kPa, x1 = 0.119 | – | 2.78
330.65 K, 100.9 kPa, x1 = 0.168 | – | 4.17
333.15 K, 100.9 kPa, x1 = 0.007 | 2.64 | –
333.15 K, 100.9 kPa, x1 = 0.119 | – | 2.61
333.15 K, 100.9 kPa, x1 = 0.351 | – | 9.26
333.15 K, 100.9 kPa, x1 = 0.55 | 1.07 | –
333.15 K, 100.9 kPa, x1 = 0.84 | – | 15.7
335.65 K, 100.9 kPa, x1 = 0.168 | – | 3.63
340.65 K, 100.9 kPa, x1 = 0.168 | – | 3.19
343.15 K, 100.9 kPa, x1 = 0.055 | – | 1.052
348.15 K, 100.9 kPa, x1 = 0.353 | 2.81 | –
348.15 K, 100.9 kPa, x1 = 0.55 | 1.68 | –
348.15 K, 100.9 kPa, x1 = 0.714 | 1.3 | –
348.15 K, 100.9 kPa, x1 = 0.838 | 1.11 | –
363.15 K, 100.9 kPa, x1 = 0.168 | 9.08 | –
363.15 K, 100.9 kPa, x1 = 0.945 | 1.27 | –
